Experiments:
porcine retina = assay: Determination of retinal layer thickness (H&E, ImagePro) in DMHC porcine model; assay type: in vivo, pig; conditions: DMHC pigs, Darapladib 10 mg/kg/d orally, 24 weeks
Procedure: Briefly, after induction of diabetes by a single injection of Streptozotocin, animals were fed a high cholesterol diet. After a month of DMHC induction and acclimation, animals were randomly segregated to untreated DMHC and Darapladib-treated DMHC groups. Darapladib-treated pigs received 10 mg/kg/d of Darapladib orally. Three of the pigs were spared from DMHC induction and served as age-matched, non-DMHC normal controls. Twenty four weeks after acclimation, animals were euthanized and their brains and eyes were immediately removed. Brains were divided anteroposteriorly into anterior, middle and posterior regions. For each of these brain regions, 2-3 tissue blocks were generated for routine tissue fixation (10% formalin) or freezing and histological processing. The anterior cortical region comprised of anterior ⅔ of frontal lobe and anterior ⅓ of temporal lobe. The middle cortical region contained mid ⅓ of temporal lobe and anterior ½ of the parietal lobe. The posterior cortex included the posterior ½ of the parietal lobe, posterior ⅓ of the temporal lobe and the occipital lobe. Eyes were dissected longitudinally to sever the retina at the optic nerve. The sections were fixed in 10% formalin and embedded as flattened disc in paraffin. The tissue samples were processed using routine histology techniques. Standard Hematoxylin & Eosin (H&E) staining (FIG. 1) was carried out in retinal sections. The remarkably uniform and laminated histological architecture of the retina lends itself well to direct measurements of the thickness of the various layers as shown in FIG. 1. Using the image analysis software, ImagePro 7.0 (Media Cybernetics, Silver Spring, Md.), the thickness of all retinal layers were measured. The thickness of each retinal layer was measured in three separate retinal sections obtained from each animal. In each section, measurements were made at two randomly selected locations in the middle part of retina. Results were averaged for each pig. The identity of specimens was blinded and two independent investigators carried out this analysis. In addition, the percentage contribution of each retinal layer to the total thickness of the retina was calculated and compared among the different treatment groups (FIG. 2). The thickness of the individual layers of the retina was measured in transverse sections stained with Hematoxylin and Eosin using the image analysis software, ImagePro 7.0.

[1] = test system: ganglion cells in the GCL; assay: Extravasated IgG in retina (anti-swine IgG IHC) as evidence of BRB compromise, DMHC pigs; assay type: in vivo, pig; conditions: Darapladib 10 mg/kg/d orally, 24 weeks
Procedure: Briefly, after induction of diabetes by a single injection of Streptozotocin, animals were fed a high cholesterol diet. After a month of DMHC induction and acclimation, animals were randomly segregated to untreated DMHC and Darapladib-treated DMHC groups. Darapladib-treated pigs received 10 mg/kg/d of Darapladib orally. Three of the pigs were spared from DMHC induction and served as age-matched, non-DMHC normal controls. Twenty four weeks after acclimation, animals were euthanized and their brains and eyes were immediately removed. Brains were divided anteroposteriorly into anterior, middle and posterior regions. For each of these brain regions, 2-3 tissue blocks were generated for routine tissue fixation (10% formalin) or freezing and histological processing. The anterior cortical region comprised of anterior ⅔ of frontal lobe and anterior ⅓ of temporal lobe. […] Extravasated IgG was detected using biotinylated anti-swine IgG antibody (Vector laboratories, Inc., Catalogue # BA-9020; dilution 1:100). […] Slides were examined and photographed with a Nikon FXA microscope, and digital images were recorded using a Nikon DXM1200F digital camera and analyzed using MATLAB (MathWorks, Mass., USA) and NIS-elements software (Nikon, Melville, N.Y.). […] The percentage of IgG-positive ganglion cells relative to total ganglion cells in the GCL was calculated. […]

## CCN(CC)CCN(Cc1ccc(-c2ccc(C(F)(F)F)cc2)cc1)C(=O)Cn1c(SCc2ccc(F)cc2)nc(=O)c2c1CCC2 [Darapladib]
Porcine retina; FIG. 2B
  thickness of ganglion cell layer (GCL): comparable to controls
Porcine retina; FIG. 2C
  thickness of outer nuclear layer (ONL): comparable to controls
Porcine retina; FIG. 2D
  thickness of inner-segment (IS)/outer-segment (OS) layer: comparable to controls
Porcine retina; FIG. 2E
  thickness of inner plexiform layer (IPL): lowered IPL thickness in DMHC animals to near control levels
Porcine retina; FIG. 2F
  thickness of inner nuclear layer (INL): comparable thickness across all treatment groups
[1]
  plasma and IgG influx into retinal layers: curtailed plasma and IgG influx into retinal layers
[1]; rank among treatment groups, FIG. 4D
  percentage of IgG-positive ganglion cells relative to total ganglion cells in the GCL: followed by untreated controls and then the DMHC-Darapladib group

Reference: US20160166572A1, “BENEFICIAL EFFECTS OF Lp-PLA2 INHIBITORS IN TREATMENT OF DIABETIC RETINOPATHY AND AGE-RELATED MACULAR DEGENERATION” (Rowan University, priority 2014, published 2016)
